From patent US10508109B2 (priority 2015, dated 2019) come the findings set out here.

One experiment deals with A549. The experiment is described as follows: Cell-based assay, anti-proliferative activity (Cell Counting Kit-8, 72 hours). The settings on record: Homo sapiens; A549 cells, Cell Counting Kit-8, 72 hours; read-out: IC50 (μM) A549. The procedure, abridged: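 Seed cells in 96-well format; add inhibitors; measure growth by CCK-8 at end of exposure; derive IC50.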
(Tetrazolium assays rely on reduction of a dye to a coloured formazan, in cell work by metabolically active cells.)

Experiment [1] concerns the target T1, SUV39H2 (Homo sapiens (Human), UniProt Q9H5I1). The settings on record: read-out: IC50 (μM) Suv 39H2 assay; enzyme assay.
Experiment [2] deals with T1, SUV39H2. Put plainly: biochemical.
A further experiment concerns HCT-116. The experiment is described as follows: Cell-based assay, anti-proliferative activity (Cell Counting Kit-8, 72 hours). Conditions: Homo sapiens; HCT-116 cells, Cell Counting Kit-8, 72 hours; read-out: IC50 (μM) HCT-116. An outline of the steps:
(§1)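 Anti-proliferative IC50 obtained from 96-well cultures treated 72 h with inhibitor at 0–100 micro-M, growth assessed by a CCK-8 colorimetric readout.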

The next experiment deals with CCD-18Co. The description is as above. Conditions: Homo sapiens; CCD-18Co cells, Cell Counting Kit-8, 72 hours; read-out: IC50 (μM) CCD-18Co. The procedure, abridged: as §1
For a further experiment, the system named is HFL1. The description is as above. The settings on record: Homo sapiens; HFL1 cells, Cell Counting Kit-8, 72 hours; read-out: IC50 (μM) HFL1. The procedure, abridged:
as §1

Another experiment relates to PC14. Described as above. Conditions: Homo sapiens, PC-14; PC14 cells, Cell Counting Kit-8, 72 hours; read-out: IC50 (μM) PC14. The procedure, abridged:
as §1

Read-outs that look alike come from different tables or passages of the source.

T1 sequence (Q9H5I1 whole entry): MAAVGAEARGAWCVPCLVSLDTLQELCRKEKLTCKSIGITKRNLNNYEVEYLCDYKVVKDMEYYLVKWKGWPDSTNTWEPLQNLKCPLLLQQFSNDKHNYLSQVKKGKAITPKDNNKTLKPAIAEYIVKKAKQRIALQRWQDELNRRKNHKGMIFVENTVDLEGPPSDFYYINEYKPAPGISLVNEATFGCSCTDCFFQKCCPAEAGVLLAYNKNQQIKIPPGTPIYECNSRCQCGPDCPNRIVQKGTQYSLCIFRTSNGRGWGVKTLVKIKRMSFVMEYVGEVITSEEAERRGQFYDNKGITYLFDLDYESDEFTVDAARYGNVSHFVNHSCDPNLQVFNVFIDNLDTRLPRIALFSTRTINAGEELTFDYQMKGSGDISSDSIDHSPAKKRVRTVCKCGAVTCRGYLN

What is called IC50 is the midpoint of a concentration-inhibition curve. Consider `COc1cc(OC)c(-c2cn3ccc(N4CCN(C(C)C)CC4)cc3n2)cc1Cl` [Example 100, 2-(5-chloro-2,4-dimethoxyphenyl)-7-(4-isopropylpiperazin-1-yl)imidazo-[1,2-a]pyridine], for which the IC50 with A549 was 5.6 µM; at SUV39H2 [1] it was 0.0136 µM; against SUV39H2 [2] it was 0.0154 µM; with HCT-116, 3.2 µM; in the experiment with CCD-18Co, 5.8 µM; in the experiment on HFL1 it was 3.2 µM.
On to `CCCS(=O)(=O)NC1CCN(c2ccn3cc(-c4cc(Cl)c(OC)cc4OC)nc3n2)CC1` [Example 193, N-(1-(2-(5-chloro-2,4-dimethoxyphenyl)imidazo[1,2-a]pyrimidin-7-yl)-piperidin-4-yl)propane-1-sulfonamide], for which the 50% inhibitory concentration (IC50) in the experiment with A549 is 10 µM; against SUV39H2 [2], 0.0327 µM; in the experiment with PC14, 6.7 µM; with HCT-116, 10 µM; in the experiment on CCD-18Co, 10 µM; in the experiment on HFL1, 10 µM.
